In patent publication US11413329B2, “Cancer cell trap” (BOARD OF REGENTS, THE UNIVERSITY OF TEXAS SYSTEM, priority 2012, dated 2022):

Legend:
[1] = In vivo release rate of chemotherapy drugs from hydrogel nanoparticle traps; details: from EPO-loaded hydrogel nanoparticles
Experimental: (§1) The fabrication of temperature sensitive hydrogel nanoparticles is described in the recent publication (Cai T, Hu P, Sun M, Zhou J, Tsai Y-T, Baker D W, Tang L. Novel thermogelling dispersions of polymer nanoparticles for controlled protein release. Nanomedicine 8 (8): 1301-8, 2012). The nanoparticles were loaded with EPO (600 international units/1 ml) in the presence or absence of doxorubicine (300 μg/m1) and paclitaxel (30 mg/ml). For that, EPO (600 international units), doxorubicine (300 μg) or paclitaxel (30 mg) was mixed with 50 μg of hydrogel nanoparticles at room temperature. After implantation, the average in vivo release rates for doxorubicin and paclitaxel were measured at 10 μg/day and 1 mg/day, respectively.

[2] = tested on: melanoma cells; test: Cancer cell killing at implant sites of EPO+paclitaxel-loaded particles; assay type: in vivo, C57 mice; details: EPO+paclitaxel-loaded vs EPO-loaded particles, 1, 2, 4, and 7 days
Experimental: as §1
(§2) Further studies were carried out to determine whether the implantation of chemotherapy drug-loaded cancer cell traps can kill cancer cells at the implant sites. […] To quantify cell recruitment, tissue section images were taken using a Leica fluorescence microscope (Leica Microsystems Wetzlar GmbH, Wetzlar, Germany) equipped with a QImaging Retiga-EXi CCD camera (QImaging, Surrey, BC, Canada). The tissue section images at a magnification of 400× (viewing area 0.24 mm^2) were then used to quantify the cell numbers per view field by cell counter plugin of ImageJ processing program.

[3] = tested on: PC3 cells; test: Cancer cell killing at implant sites of EPO+doxorubicin-loaded particles; assay type: in vivo; details: EPO+doxorubicin-loaded vs EPO-loaded particles, 1, 2, 4, and 7 days
Experimental: as §1, §2

Compound | average in vivo release rate ([1]; 30 mg/ml) | numbers of recruited melanoma cells at implant [2] | average in vivo release rate ([1]; 300 μg/ml) | numbers of recruited PC3 cells at implant [3]
CC(=O)O[C@H]1C(=O)[C@@]2(C)[C@H]([C@H](OC(=O)c3ccccc3)[C@]3(O)C[C@H](OC(=O)[C@H](O)[C@@H](NC(=O)c4ccccc4)c4ccccc4)C(C)=C1C3(C)C)[C@]1(OC(C)=O)CO[C@@H]1C[C@@H]2O [paclitaxel] | 1 mg/day | substantially reduced | – | –
COc1cccc2c1C(=O)c1c(O)c3c(c(O)c1C2=O)C[C@@](O)(C(=O)CO)C[C@@H]3O[C@H]1C[C@H](N)[C@H](O)[C@H](C)O1 [doxorubicin] | – | – | 0.01 mg/day | substantially reduced
